Test results reported in a melting point compilation (Tetko et al.).

Row | Structure (SMILES) | melting point [°C]
1 | O=C(C=CC(=O)OCC(F)(F)C(F)(F)C(F)(F)C(F)(F)C(F)(F)C(F)(F)C(F)(F)F)OCC(F)(F)C(F)(F)C(F)(F)C(F)(F)C(F)(F)C(F)(F)C(F)(F)F | 82 to 84
2 | CC1=CCC(O)(C(C)C)CC1 (stereo unspecified) | 14.7
3 | CCOc1cc2c(cc1OC)CCNC2CC(C)C (stereo unspecified) | 151
4 | OC1C(O)C(O)C(O)C(O)C1O (stereo unspecified) | 230
5 | COc1cc(C=O)ccc1F | 62
6 | Cc1ccc(C)c2c1COC2=O | 88
7 | C/C(=N\c1ccccc1C)c1c(O)c2ccccc2n(-c2ccccc2)c1=O | 140
8 | O=C(O)COc1ccc(CO)cc1 | 112
9 | Cc1cc(Cl)cc(Cl)c1 | 26
10 | N#CCCN1C(=O)COc2ccc(Cl)cc21 | 131
11 | NC(=O)NN=Cc1cccc2c(Br)cccc12 | 257 to 259
12 | CCOCCOC(=O)C(C)Oc1ccc(Oc2ncc(C(F)(F)F)cc2Cl)cc1 (stereo unspecified) | 60
13 | COc1ccc(S(N)(=O)=O)cc1 | 112
14 | C1CCCCCCCCC1 | 10
15 | CCOc1cccc2cc(C(=O)O)c(=O)oc12 | 190 to 192
16 | COC(=O)c1ccc(OC)c(OC2CCCC2)c1 | 59 to 61

Row | Structure (SMILES) | melting point [°C]
17 | CC(C)NC(=O)COC(=O)c1ccccc1 | 130
18 | C=CCN(CC=C)C(=O)CCl | 25
19 | O=CC[C@@H](O)[C@H](O)CO | 91
20 | O=C(O)c1cccc(Oc2ccccn2)c1 | 108 to 112
21 | CC1c2ccccc2C(=O)C1c1ccccc1 (stereo unspecified) | 84 to 85.5
22 | O=[N+]([O-])c1cc(O)ccc1I | 153 to 159
23 | Nc1nonc1N | 178 to 183
24 | CC1(C)CCC(O)CC1 | 28 to 30
25 | CS(=O)(=O)CC(=O)O | 117
26 | FCc1ccccc1 | -35
27 | O=C=NS(=O)(=O)Cl | -44
28 | NC(=S)c1ccc(F)c(Cl)c1 | 129 to 131
29 | O=C(Oc1c(F)c(F)c(F)c(F)c1F)c1cccc(Oc2ccccn2)c1 | 60.5 to 61.5
30 | COc1ccc2sc(S)nc2c1 | 196
31 | c1ccc(-c2ccc3c4c(c5c(c3c2)CCCC5)CCCC4)cc1 | 136
32 | C1CN2CCC1CC2 | 158

Other lines, results leading:

Row | melting point [°C] | Structure (SMILES)
33 | 48 | CCCCCCCOC(=O)c1ccc(O)cc1
34 | 154 to 156 | Cc1c(C(=O)CBr)sc2ccc(Cl)cc12
35 | 198 | NC(=O)n1c(C2CCCCC2)nn(-c2ccccc2)c1=O
36 | 138 | Nc1nc(=O)n(C2CSC(CO)O2)cc1F (stereo unspecified)
37 | 60.5 | CCCCCCCCCCCCCCCCCC(=O)OCCO
38 | 25 | CNCCCN1c2ccccc2CCc2ccccc21
39 | 268 | N#Cc1ccc(C(Cl)=Cc2cccc(C=C(Cl)c3ccc(C#N)cc3[N+](=O)[O-])c2)c([N+](=O)[O-])c1
40 | 120 | C=C(Br)CC(NC(=O)OCC1c2ccccc2-c2ccccc21)C(=O)O (stereo unspecified)
41 | 207 to 211 | ON=CNc1ccc(Cl)nn1
42 | 241 | NC(=O)NN=CC(=O)c1ccc(C(=O)C=NNC(N)=O)c([N+](=O)[O-])c1
43 | 208 | COc1cc(O)c2c(=O)c(O)c(-c3ccc(OCc4ccccc4)c(O)c3)oc2c1
44 | 180 | Nc1c(S/C=C/Cl)ccc2c1C(=O)c1ccccc1C2=O
45 | 98.5 | O=C(c1ccccc1)c1cccc(C(=O)c2ccccc2)c1
46 | 69 | O=C1C=CC(=O)N1Cc1ccccc1
47 | 88 | Cc1cnc(N)c(I)c1
48 | 188 to 190 | Oc1ccc2ccccc2c1Cc1c(O)ccc2ccccc12
49 | 117 | CC(=O)Nc1ccccc1CCc1ccccc1
50 | 214 to 218 | Nc1ncc([N+](=O)[O-])cc1Br
51 | 210 | CC1=NN(c2ccccc2)C(=O)C1Cc1ccc(O)cc1 (stereo unspecified)
